# Measured values published in paper PMC6718988, “Bioactivity and Bactericidal Mechanism of Histidine-Rich β-Hairpin Peptide Against Gram-Negative Bacteria” (International Journal of Molecular Sciences, 2019).
# Where a SMILES comes first, the peptide text is derived from it. [ ]: non-standard residue; d: D form.
# What was measured:
# [1] = system: Gram-positive and Gram-negative bacteria; conditions: 24 h
# Experimental: (§1) The minimum inhibitory concentration (MIC) was measured using a broth microdilution method to determine the in vitro antimicrobial activity of the peptides. Bacteria were inoculated into MHB and incubated overnight at 37 °C until the bacteria were in log phase growth. Next, we corrected the bacterial concentration to approximately 1 × 10^5 CFU/mL using MHB. The peptides were added to 96-well plates containing 0.01% acetic acid and 0.2% bovine serum albumin at final concentrations ranging from 0.25 to 128 μM. After incubation at 37 °C for 24 h, the absorbance was measured at 492 nm using a microplate reader (Tecan GENios F129004, Tecan, Austria). Broth containing microbes and […] were used as positive and negative controls, respectively. The lowest peptide concentration with no increase in absorbance compared to that of the negative control was defined as the MIC. The experiments were independently performed three times.
# Gram-positive bacteria = conditions: 24 h
# Experimental: as §1
# E. coli ATCC25922 [2] = assay: Swimming motility assay; format: cell-based; conditions: E. coli ATCC25922, 0.3% agar, 1–8 μM peptide, 37 °C, 20 h; versus untreated control
# Experimental: The cell motility assay was performed on LB medium containing 0.3% agar. The peptides were added to 10 mL of medium at final concentrations of 1–8 μM. After mixing well, the mixtures were poured into 6-well plates and dried for 2 h. Subsequently, an overnight culture of E. coli ATCC 25922 was inoculated in the center of the movement plate. After incubation at 37 °C for 20 h, images were taken using a FluoroChemQ system (Cell biosciences, San Jose, CA, USA). The experiment was independently repeated three times.
# Gram-negative bacteria = assay: MICs against Gram-negative strains (geometric mean, range); format: cell-based
# Experimental: as §1
# E. coli ATCC25922 [3] = assay: SEM characterization of cell morphology; format: cell-based; conditions: E. coli ATCC25922, 1 × MIC (HV2 8 μM, PG-1 4 μM), 1 h
# Experimental: For the SEM sample preparation, E. coli ATCC25922 cells were cultured at 37 °C to mid-log phase in MH broth with constant shaking at 220 rpm, centrifuged at 1000 g and then adjusted to an OD600 of 0.1–0.2 in PBS. […] Bacteria incubated with PBS served as controls. After the incubation, the mixture was centrifuged at 5000 g for 5 min, and the collected bacteria were washed three times with PBS. Approximately 2.5% (w/v) glutaraldehyde was added for fixation at 4 °C overnight, followed by washing three times with PBS. The samples were dehydrated with 50%, 70%, 90%, 100% ethanol for 10 min. A mixture of ethanol and tert-butanol was added to the dried bacterial cells for 30 min, and then t-butanol was added for 1 h. Finally, the samples were dehydrated and coated with liquid CO2 in a critical point dryer and then observed using a Hitachi S-4800 SEM (Hitachi, Tokyo, Japan).
# [4] = RP-HPLC retention time as measure of hydrophobicity; format: physicochemical; conditions: analytical Kromasil C18 column 4.6 mm × 250 mm, 5.0 μm, acetonitrile, flow 1.0 mL/min, used as measure of hydrophobicity
# Experimental: The hydrophobicities of the peptides in solution were reliably mirrored by their high-performance liquid chromatography (HPLC)retention times. The retention times for peptide HI2, HW2, HV2, HF2, and PG-1 were 11.13, 10.55, 12.20, 18.06 and 12.56 min, respectively, indicating the following hydrophobic order: HF2 > PG-1 > HV2 > HI2 > HW2(Table 1).
# The designed peptides were synthesized and purified by GL Biochem (Shanghai, China). Acetonitrile was used on an analytical Kromasil C18 column (4.6 mm × 250 mm, 5.0 μm, LC 3000, Beijing, China), and the purity of the peptides was determined to be greater than 95% via reversed-phase high-performance liquid chromatography (RP-HPLC) with a flow rate of 1.0 mL/min. The experimental molecular weights of the peptides were evaluated via ESI-MS analysis, and these values were very close to the calculated masses. Next, the peptides were dissolved in deionized water at a concentration of 2.56 mM, and the peptide solutions were stored at −20 °C.
smiles,measurement,setting,value
CC(C)[C@H](NC(=O)CNC(=O)[C@H]1CCCN1C(=O)[C@@H](NC(=O)[C@H](Cc1c[nH]cn1)NC(=O)[C@@H](NC(=O)[C@H](Cc1c[nH]cn1)NC(=O)[C@@H](NC(=O)[C@H](CCCNC(=N)N)NC(=O)[C@@H](N)CCCNC(=N)N)C(C)C)C(C)C)C(C)C)C(=O)N[C@@H](Cc1c[nH]cn1)C(=O)N[C@H](C(=O)N[C@@H](Cc1c[nH]cn1)C(=O)N[C@H](C(=O)N[C@@H](CCCNC(=N)N)C(=O)N[C@@H](CCCNC(=N)N)C(N)=O)C(C)C)C(C)C [HV2] (H-RRVHVHV[dP]GVHVHVRR-NH2; N-terminus assumed),"MBC (GM), geometric mean of MICs, Gram (+,−)",[1],23.52 µM
same,"MBC (GM), geometric mean of MICs, Gram (+)",Gram-positive bacteria,256 µM
same,swimming motility (diameter of swimming bacteria),E. coli ATCC25922 [2],significantly reduced the diameter of the swimming bacteria
same,"MBC (GM), geometric mean of MICs, Gram (−)","Gram-negative bacteria; Gram-negative strains, 256 μM used where no activity at 128 μM",7.13 µM
same,MIC against Gram-negative bacteria,Gram-negative bacteria; range over the Gram-negative strains of Table 2,4 to 8 µM
same,cell morphology by SEM,E. coli ATCC25922 [3],rough and wrinkled
same,Retention Time,[4],12.20 min
